Values of other authors, collected in US20110263720A1, “SYNTHESIS OF ALPHA-TOCOPHEROLQUINONE DERIVATIVES, AND METHODS OF USING THE SAME” (Penwest Pharmaceuticals Co., priority 2010, published 2011).

Test system: mitochondrial function
Conditions: in vitro; compared with CoQ10; background statement, no data

Compound: CC1=C(C)C(=O)C(CC[C@](C)(O)CCC[C@H](C)CCC[C@H](C)CCCC(C)C)=C(C)C1=O [R,R,R-alpha-tocopherolquinone]
- potency in enhancing mitochondrial function: far more potent than CoQ^10
